Laboratory results: patent US20100179118A1, “CYCLIC AMINOALKYLCARBOXAMIDE DERIVATIVE” (DAINIPPON SUMITOMO PHARMA CO., LTD., priority 2006, published 2010)

Tests used:
[1] = test system: BN rat DNCB repetitive application dermatitis model; assay: Suppressive action on BN rat DNCB repetitive application dermatitis model; format: in vivo; settings: dose 2 mg/kg, oral once a day; AUC of ear thickness increase vs solvent control; male BN rat
Procedure: Suppressive Action on BN Rat DNCB Repetitive Application Dermatitis Model
A 8-week-old male rat was sensitized by applying 30 μL of 1.5 wt % solution of dinitrochlorobenzene (DNCB) dissolved in acetone:olive oil=4:1 solution to the right ear on day 1 and 3 days later. Starting from one week thereafter, the same solution was consecutively applied to the right ear every other day in total of 6 times, whereby chronic dermatitis was induced in which the skin thickness increases with time. As for the level of dermatitis, the thickness was measured with a dial gauge thickness before application of the solution, and expressed by the difference from the measured thickness of the right ear immediately before induction on day 1 of the induction. The drug was suspended in 0.5 wt % tragacanth, and orally administered once a day immediately before induction on day 1 of the induction and after 24 hr value measurement the next day. The changes in the ear tumentia with time were monitored, and the area under the curve in a graph showing the values up to 48 hr after the final induction was calculated, from which the percent suppression relative to the area of the solvent control group was determined. As a comparison control compound, prednisolone, which is a steroid, was used.

[2] = test system: TMA (trimellitic anhydride) repetitive application dermatitis model; assay: Suppressive action on TMA (trimellitic anhydride) repetitive application dermatitis model; format: in vivo, mice; settings: for inhibition in vivo at 20 mg/kg: Mus musculus, 8 h, oral twice (30 min before and 4 hr after induction), ear thickness vs solvent control, male BALB/c mice, read-out: right ear suppression (%) at 8 hr after final induction

## O=C(c1ccc(Cl)cc1)N1CCC(N(C(=O)CN2CCOCC2)C2CCCCC2)CC1 [Example 65, N-[1-(4-chlorobenzoyl)piperidin-4-yl]-N-cyclohexyl-2-(morpholin-4-yl)acetamide]
[1]
  suppression (%) at 48 hr after final induction: 20.5%
[2]
  inhibition in vivo at 20 mg/kg: 41%

## O=C(O)c1cccc(N(C(=O)CN2CCCC2)C2CCN(C(=O)c3ccc(C(F)(F)F)cc3)CC2)c1 [Example 227, N-(3-carboxylphenyl)-2-(pyrrolidin-1-yl)-N-[1-(4-trifluoromethylbenzoyl)piperidin-4-yl]acetamide]
[2]; mouse, in vivo, po, 80 mg/kg
  right ear suppression (%) at 8 hr after final induction: 57.2%

## C[C@]12C=CC(=O)C=C1CC[C@@H]1[C@@H]2[C@@H](O)C[C@@]2(C)[C@H]1CC[C@]2(O)C(=O)CO [prednisolone, reference compound]
[1]
  suppression (%) at 48 hr after final induction: 44.0%
[2]
  inhibition in vivo at 20 mg/kg: 67.8%
